Target: Trm6p/Trm61p complex (yeast tRNA m^1A58 Mtase) (Saccharomyces cerevisiae, UniProt P46959)
Assay: biochemical

Trm6p/Trm61p complex (yeast tRNA m^1A58 Mtase), sequence (P46959 whole entry): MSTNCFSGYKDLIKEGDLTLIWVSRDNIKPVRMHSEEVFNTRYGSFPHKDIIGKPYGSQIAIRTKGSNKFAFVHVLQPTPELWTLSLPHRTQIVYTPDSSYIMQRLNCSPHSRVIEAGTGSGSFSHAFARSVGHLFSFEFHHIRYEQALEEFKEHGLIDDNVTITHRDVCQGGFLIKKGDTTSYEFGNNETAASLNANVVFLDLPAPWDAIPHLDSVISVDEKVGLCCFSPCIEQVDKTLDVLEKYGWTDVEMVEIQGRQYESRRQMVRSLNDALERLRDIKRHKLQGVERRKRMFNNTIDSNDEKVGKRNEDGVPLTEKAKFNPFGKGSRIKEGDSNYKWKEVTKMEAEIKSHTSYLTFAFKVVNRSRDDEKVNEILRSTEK
Trm6p/Trm61p complex (yeast tRNA m^1A58 Mtase), sequence (P41814 whole entry partner): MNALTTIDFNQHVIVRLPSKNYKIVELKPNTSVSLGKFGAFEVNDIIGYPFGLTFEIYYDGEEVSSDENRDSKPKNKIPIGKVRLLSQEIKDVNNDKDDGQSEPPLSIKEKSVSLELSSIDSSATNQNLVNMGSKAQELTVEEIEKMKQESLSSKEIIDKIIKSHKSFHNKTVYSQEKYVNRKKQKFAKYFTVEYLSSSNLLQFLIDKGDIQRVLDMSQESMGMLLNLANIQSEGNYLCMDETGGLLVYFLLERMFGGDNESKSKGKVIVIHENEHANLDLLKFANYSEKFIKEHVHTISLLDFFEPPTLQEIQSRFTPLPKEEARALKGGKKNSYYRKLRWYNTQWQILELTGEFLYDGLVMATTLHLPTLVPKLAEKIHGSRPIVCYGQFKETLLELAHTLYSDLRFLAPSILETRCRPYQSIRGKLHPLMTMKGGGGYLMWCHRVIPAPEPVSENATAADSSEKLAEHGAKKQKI

**Q.** For C[S+](CC[C@H](N)C(=O)O)C[C@H]1O[C@@H](n2cnc3c(N)ncnc32)[C@H](O)[C@@H]1O (stereo partly shown) [AdoMet], which Kd is on record?
**A.** The Kd was 376 ± 73 µM.

From paper PMC2175304 (Nucleic Acids Research, 2007)
